Source: patent publication US20210220320A1, “ANALGESIC AGENT AND SEDATIVE AGENT” (THE UNIVERSITY OF TOKYO, priority 2018, published 2021)

What was measured:
[1] = system: mice subjected to the formalin test; experiment: Formalin test (inflammatory pain model), pain behavior in mice; format: in vivo, mouse
Procedure: The formalin test, which is an inflammatory pain model and is commonly used as a neuropathic pain model in a broad sense, was used to evaluate the pain-inhibiting effect of disulfiram (DSF).
In the formalin test, each mouse was placed in a transparent container for 30 minutes for acclimation to the analysis environment. Thereafter, a test drug or a solvent control (a solution of 10% DMSO and 2% Tween-80) was administered intraperitoneally to each mouse, and 30 minutes later, 20 μL of 1% formalin was injected subcutaneously from the palmar surface of the right hind paw to observe pain behavior in each mouse. The duration (sec.) of paw lifting and paw licking was used as a measured value of intensity of pain.
The formalin test is one of the commonly used models that are used as pain models to evaluate analgesic effects. A biphasic pain-like behavior is observed in the formalin test; the first response appears within 5 minutes and disappears till 10 minutes after the administration of formalin, and the second response is a response that reappears within 10 to 15 minutes after the administration of formalin (FIG. 1A).
DSF is metabolized in the body to generate diethyldithiocarbamate (DDC). The analgesic effects of metal complexes of DDC, which are considered to generate DDC in the body as well as DSF, was evaluated by the formalin test. The formalin test was performed in the same manner as in the above-described section 1. except that a copper complex of DDC (Cu(DDC)2) and an iron(III) complex of DDC (Fe(DDC)3) were used as test drugs. Either of the complexes was administered to mice at a dose of 40 mg/kg.

[2] = system: sciatic nerve ligation (CCI) mouse; experiment: Sciatic nerve ligation (CCI) model, plantar test of pain threshold for heat; format: in vivo; settings: 40 mg/kg intraperitoneally, plantar test 30 min after administration; p<0.01 (FIG. 2)
Source text: Since central sensitization was known to be involved in the second phase pain response in the formalin test, DSF was expected to also exert its effects on neuropathic pain. […] Thus, the sciatic nerve ligation (CCI) model, which is commonly used as a neuropathic pain mouse model, was used to evaluate the efficacy of DSF. In the sciatic nerve ligation (CCI) mouse group, a femoral region of each mouse was cut open and the muscle layer was removed to expose the sciatic nerve, and the sciatic nerve was ligated with 6-0 silk sutures at three positions spaced 1 mm apart, and the incision was then closed. In contrast, each mouse in the sham operation (Sham) group was subjected to the same operation till the muscle layer was removed, and the incision was then closed without ligating the exposed sciatic nerve. On one week postsurgery or later, the planter test was performed to evaluate the pain threshold for heat, which was a stimulus not associated with stimulant administration, in those mice. DSF was administered intraperitoneally to mice in the CCI DSF group at a dose of 40 mg/kg. The solvent control (a solution of 10% DMSO and 2% Tween-80) was administered instead of DSF to mice in the CCI control group. The plantar test was performed 30 minutes after administration.

CCN(CC)C(=S)SSC(=S)N(CC)CC [DSF, tetraethylthiuram disulfide]
analgesic effect (suppression of the second response) at 10 mg/kg ([1]; 10 mg/kg intraperitoneally, versus solvent control (FIG. 1C)): significant analgesic effects | suppression of the second response (pain score) in the formalin test ([1]; 40 mg/kg intraperitoneally, 30 min before 1% formalin, p<0.001 (FIG. 1B)): strongly suppressed | dose dependency of suppression of the second response relative to solvent control (100%) ([1]; DSF dose groups, intraperitoneal (FIG. 1C)): analgesic effects in a dose-dependent manner | analgesic effect compared with existing analgesics (pregabalin, loxoprofen, aspirin), suppression of the second response ([1]; all drugs at a fixed dose of 40 mg/kg (FIG. 1D)): stronger analgesic effects than all of the tested existing analgesics | sedative effect (behavior of treated mice) ([1]; mice in the formalin test after intraperitoneal administration): behaved more quietly | reduction in pain threshold associated with sciatic nerve ligation (CCI) [2]: prevented to a significant degree
